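96-well plates; 48 h exposure; 5 concentrations. Endpoints by linear interpolation between flanking doses. Not reached: highest tested concentration assigned. GI50 is the concentration that inhibits growth by half.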 The source made the active and inactive calls. Cut-off read from the data, not from the text of the source: active = GI50 up to about 1.1 µM and inactive = higher.
Columns and labels:
Test in all cases: growth of human tumour cells (NCI), 48 h
A498 = tested on: A498
A549 = tested on: A549
HCC 2998 = tested on: HCC 2998
HCT-15 = tested on: HCT-15
HOP-62 = tested on: HOP-62
HOP-92 = tested on: HOP-92
IGROV-1 = tested on: IGROV-1
MDA-MB-435 = tested on: MDA-MB-435
MOLT-4 = tested on: MOLT-4
NCI-H226 = tested on: NCI-H226
NCI/ADR-RES = tested on: NCI/ADR-RES
OVCAR-8 = tested on: OVCAR-8
RXF 393 = tested on: RXF 393
SF-268 = tested on: SF-268
SF-295 = tested on: SF-295
SK-MEL-28 = tested on: SK-MEL-28
SK-MEL-5 = tested on: SK-MEL-5
SK-OV-3 = tested on: SK-OV-3
SNB-19 = tested on: SNB-19
SNB-75 = tested on: SNB-75

Row | SMILES | GI50 (A498) | GI50 (A549) | GI50 (HCC 2998) | GI50 (HCT-15) | GI50 (HOP-62) | GI50 (HOP-92) | GI50 (IGROV-1) | GI50 (MDA-MB-435) | GI50 (MOLT-4) | GI50 (NCI-H226) | GI50 (NCI/ADR-RES) | GI50 (OVCAR-8) | GI50 (RXF 393) | GI50 (SF-268) | GI50 (SF-295) | GI50 (SK-MEL-28) | GI50 (SK-MEL-5) | GI50 (SK-OV-3) | GI50 (SNB-19) | GI50 (SNB-75)
1 | CCOC(=O)c1c(C)c(C)n2c1NC(=O)C2 | > 100 µM (inactive) | > 82.6 µM (inactive) | 97.1 µM (inactive) | > 61.1 µM | > 66.5 µM (inactive) | > 91.4 µM (inactive) | > 72.1 µM (inactive) | > 100 µM (inactive) | > 100 µM (inactive) | > 100 µM (inactive) | 20.4 µM (inactive) | > 70.3 µM (inactive) | > 40.4 µM (inactive) | > 42.8 µM (inactive) | > 80 µM (inactive) | > 100 µM (inactive) | > 100 µM (inactive) | > 100 µM (inactive) | 55.3 µM (inactive) | 39.1 µM (inactive)
2 | COc1ccc(C(=O)/C=C2\C(=O)Nc3ccc(Br)cc32)cc1 | 17.9 µM (inactive) | 15.3 µM (inactive) | 4.26 µM (inactive) | 2.13 µM | 10.4 µM (inactive) | 3.24 µM (inactive) | 2.84 µM (inactive) | 6.75 µM (inactive) | 2.41 µM (inactive) | 11.1 µM (inactive) | 1.71 µM (inactive) | 2.07 µM (inactive) | 2.29 µM (inactive) | 16.4 µM (inactive) | 16.2 µM (inactive) | 10.5 µM (inactive) | 18.4 µM (inactive) | 15.6 µM (inactive) | 16.7 µM (inactive) | 14.3 µM (inactive)
3 | OCC1OC(N2CCN(C3OC(CO)C(O)C(O)C3O)CC2)C(O)C(O)C1O (stereo not given) | > 100 µM (inactive) | > 100 µM (inactive) | > 100 µM (inactive) | > 100 µM | > 100 µM (inactive) | > 100 µM (inactive) | > 100 µM (inactive) | > 100 µM (inactive) | > 100 µM (inactive) | > 100 µM (inactive) | > 100 µM (inactive) | > 100 µM (inactive) | > 100 µM (inactive) | > 100 µM (inactive) | > 100 µM (inactive) | > 100 µM (inactive) | > 100 µM (inactive) | > 100 µM (inactive) | > 100 µM (inactive) | > 100 µM (inactive)
4 | Cc1ccc(S(=O)(=O)N/N=C2\CC3C4CCC3C2C4)cc1 (stereo not given) | > 100 µM (inactive) | > 100 µM (inactive) | > 100 µM (inactive) | > 100 µM | > 100 µM (inactive) | > 100 µM (inactive) | > 100 µM (inactive) | > 100 µM (inactive) | > 100 µM (inactive) | > 100 µM (inactive) | > 100 µM (inactive) | > 100 µM (inactive) | > 100 µM (inactive) | > 100 µM (inactive) | > 100 µM (inactive) | > 100 µM (inactive) | > 100 µM (inactive) | > 100 µM (inactive) | > 100 µM (inactive) | 0.0859 µM (active)
5 | COC(=O)C1=C(O)C(C(=O)OC)[C@]2(O)[C@H](C(=O)OC)[C@H]1C[C@@H](c1ccc(C(F)(F)F)cc1)[C@H]2C(=O)OC (stereo not given in full) | 3.37 µM (inactive) | 3.74 µM (inactive) | 3.47 µM (inactive) | 2.82 µM | 6.87 µM (inactive) | 5.27 µM (inactive) | 5.15 µM (inactive) | 3.36 µM (inactive) | 2.07 µM (inactive) | 1.33 µM (inactive) | 2.33 µM (inactive) | 2.85 µM (inactive) | 2.17 µM (inactive) | 4.47 µM (inactive) | 4 µM (inactive) | 4.89 µM (inactive) | 2.49 µM (inactive) | 6.35 µM (inactive) | 3.87 µM (inactive) | 4.13 µM (inactive)
6 | N#CCC(=O)N/N=C(\CCN1CCCC1)CC(c1ccccc1)c1c(O)c2ccccc2oc1=O (stereo not given) | > 41.1 µM (inactive) | > 71.9 µM (inactive) | 21.2 µM (inactive) | > 67.5 µM | > 100 µM (inactive) | 27.7 µM (inactive) | > 100 µM (inactive) | 57 µM (inactive) | 24.5 µM (inactive) | > 89.5 µM (inactive) | 56.4 µM (inactive) | > 95.5 µM (inactive) | > 100 µM (inactive) | > 100 µM (inactive) | > 100 µM (inactive) | > 100 µM (inactive) | > 72.1 µM (inactive) | > 86.9 µM (inactive) | > 100 µM (inactive) | > 89.1 µM (inactive)
7 | CN(CCCNC(=O)c1c2ccc3ccccc3c2nn1C)CCCNC(=O)c1c2ccc3ccccc3c2nn1C | 6.9 µM (inactive) | 12.4 µM (inactive) | 1.87 µM (inactive) | 6.93 µM | 14.8 µM (inactive) | 3.21 µM (inactive) | 8.79 µM (inactive) | 2.29 µM (inactive) | 4.85 µM (inactive) | 15.1 µM (inactive) | 13.6 µM (inactive) | 13.3 µM (inactive) | 5.94 µM (inactive) | 11.5 µM (inactive) | 4.29 µM (inactive) | 2.3 µM (inactive) | 2.23 µM (inactive) | 15 µM (inactive) | 14.9 µM (inactive) | 8.2 µM (inactive)
8 | CC(=O)Oc1ccc2c(c1)c1c(=O)oc(C)nc1n2Cc1ccccc1 | 23.4 µM (inactive) | 67.5 µM (inactive) | > 100 µM (inactive) | 26.7 µM | 32.7 µM (inactive) | 34 µM (inactive) | 51.4 µM (inactive) | 28.3 µM (inactive) | 71.8 µM (inactive) | 24.8 µM (inactive) | 31.3 µM (inactive) | 37.2 µM (inactive) | 14.8 µM (inactive) | 17.6 µM (inactive) | 43.6 µM (inactive) | 46.2 µM (inactive) | 40 µM (inactive) | 28.7 µM (inactive) | 69.8 µM (inactive) | > 41.8 µM (inactive)
9 | C=C1C(=O)O[C@H]2[C@@H]3O[C@@](C)(CC/C=C(\C)CCC[C@@H]2C)[C@H](O)C[C@@H]13 | 25.1 µM (inactive) | 6.79 µM (inactive) | 5.02 µM (inactive) | 2.56 µM | 10.5 µM (inactive) | 3.42 µM (inactive) | 4.72 µM (inactive) | 3.06 µM (inactive) | 3.08 µM (inactive) | 2.11 µM (inactive) | 2.04 µM (inactive) | 3.15 µM (inactive) | 3.94 µM (inactive) | 16.8 µM (inactive) | 13.9 µM (inactive) | 7.31 µM (inactive) | 2.08 µM (inactive) | 17.6 µM (inactive) | > 10 µM (inactive) | 16.4 µM (inactive)
10 | Cc1ccccc1OC(C)C(=O)NN1C(=O)CC(=O)N(c2ccc(Cl)cc2)C1=S (stereo not given) | 20.7 µM (inactive) | 43.9 µM (inactive) | 27.4 µM (inactive) | 30.1 µM | 47.9 µM (inactive) | 19.3 µM (inactive) | 49.9 µM (inactive) | 49.3 µM (inactive) | 30.5 µM (inactive) | 31.5 µM (inactive) | 29.4 µM (inactive) | 34.1 µM (inactive) | 25 µM (inactive) | 50.9 µM (inactive) | 36.8 µM (inactive) | 41.4 µM (inactive) | 25.1 µM (inactive) | 48.2 µM (inactive) | 61.1 µM (inactive) | 35 µM (inactive)
11 | Nc1cccc(S(=O)(=O)Nc2nnc(S(N)(=O)=O)s2)c1 | > 100 µM (inactive) | > 100 µM (inactive) | > 100 µM (inactive) | > 100 µM | > 100 µM (inactive) | > 100 µM (inactive) | > 100 µM (inactive) | > 100 µM (inactive) | > 100 µM (inactive) | > 100 µM (inactive) | > 100 µM (inactive) | > 100 µM (inactive) | > 100 µM (inactive) | > 100 µM (inactive) | > 100 µM (inactive) | > 100 µM (inactive) | > 100 µM (inactive) | > 100 µM (inactive) | > 100 µM (inactive) | > 100 µM (inactive)
12 | COc1ccc(NC(=S)Nc2c(C)n(C)n(-c3ccccc3)c2=O)cc1 | > 100 µM (inactive) | > 100 µM (inactive) | > 100 µM (inactive) | > 100 µM | > 100 µM (inactive) | > 100 µM (inactive) | > 100 µM (inactive) | > 100 µM (inactive) | > 100 µM (inactive) | > 100 µM (inactive) | > 100 µM (inactive) | > 100 µM (inactive) | > 100 µM (inactive) | > 100 µM (inactive) | > 100 µM (inactive) | > 100 µM (inactive) | > 100 µM (inactive) | > 100 µM (inactive) | > 100 µM (inactive) | > 100 µM (inactive)
13 | C[N+]1(CCN[N+]2(C)CCCCC2)CCc2ccccc2C1 (stereo not given) | > 100 µM (inactive) | > 100 µM (inactive) | > 100 µM (inactive) | > 100 µM | > 100 µM (inactive) | > 100 µM (inactive) | > 100 µM (inactive) | > 100 µM (inactive) | > 100 µM (inactive) | 60.4 µM (inactive) | > 100 µM (inactive) | > 100 µM (inactive) | > 100 µM (inactive) | > 100 µM (inactive) | > 100 µM (inactive) | > 100 µM (inactive) | > 100 µM (inactive) | > 100 µM (inactive) | > 100 µM (inactive) | > 100 µM (inactive)
14 | CC[C@@]1(O)C(=O)OCc2c1cc1n(c2=O)Cc2cc3cc(OC)ccc3nc2-1 | 0.415 µM (active) | 0.0249 µM (active) | 0.0276 µM (active) | 0.116 µM | 0.00562 µM (active) | 0.0114 µM (active) | 0.106 µM (active) | 0.0441 µM (active) | 0.00458 µM (active) | 0.016 µM (active) | 0.073 µM (active) | 0.0448 µM (active) | 0.016 µM (active) | 0.00509 µM (active) | 0.008 µM (active) | 0.372 µM (active) | 0.0211 µM (active) | 0.0498 µM (active) | 0.00843 µM (active) | 0.00427 µM (active)

Source: ChEMBL document CHEMBL1201862, “PubChem BioAssay data set” (2004)
